Source: PMC5882164, “A novel calcimimetic agent, evocalcet (MT-4580/KHK7580), suppresses the parathyroid cell function with little effect on the gastrointestinal tract or CYP isozymes in vivo and in vitro” (PLoS ONE, 2018)
Values joined by “and” are separate entries in the source; they are usually repeats but may differ in a detail not shown here. Identical values can stand only once.

Key:
serum calcium = assay: Normal rat study: serum calcium level after oral administration; format: in vivo; set-up: Serum Ca: unit not given here; details: normal rats
Protocol: (§1) After acclimatization, rats were divided into nine groups (n = 10/group) matched in terms of body weight, and their serum PTH and calcium levels. Vehicle, 0.5% (w/v) methyl cellulose (Wako Pure Chemical Industries, Ltd.) solution orally administered to vehicle treatment group rats. Evocalcet (0.03, 0.1, 0.3, or 1 mg/kg), or cinacalcet (1, 3, 10, or 30 mg/kg) were suspended in the vehicle solution and orally administered to each drug treatment group. Blood samples were collected from the tail vein before and at 0.5, 2, 4, 6, 8, and 24 h after the oral administration.
(§2) The serum PTH level was measured using a Rat Intact PTH ELISA kit (Immutopics, Inc., San Clemente, CA). The serum calcium, phosphate and BUN levels were measured using an auto analyzer (Hitachi High-Technologies Corporation., Tokyo, Japan) or the following test kits: the Calcium E-test WAKO, the Phospha C-test WAKO, or the Blood Urea nitrogen B-test WAKO (Wako Pure Chemical Industries, Ltd., Osaka, Japan).

gastric emptying = assay: Evaluation of gastric emptying in rats (phenol red); format: in vivo, rat
Protocol: The study of gastric emptying in rats was performed by referencing a previously reported method. […] The rats were divided into eight body-weight-matched groups (n = 8/group). […] Ten minutes later, 0.05 w/v% phenol red, a non-absorbable marker solution (1.5 mL/body), was orally administered. Thirty minutes after the administration of phenol red, the rats were euthanized by cervical dislocation, and the gastric body clamped at the cardiac and pyloric part of the stomach was obtained. The stomach was homogenized by adding 0.1 M NaOH and centrifugated. The supernatant was mixed with 20 w/v% trichloroacetic acid. After centrifugation, the supernatant was mixed with the same volume of 0.5 mol/L NaOH, and the absorbance was measured at 560 nm. The gastric emptying rate was calculated by the following formula: […]=[1-(opticaldensity[[…])]×100

serum PTH [1] = assay: Normal rat study: serum PTH level after oral administration; format: in vivo; details: normal rats
Protocol: as §1, §2

serum PTH [2] = assay: Serum PTH reduction in common marmosets; format: in vivo, common marmoset; set-up: Serum PTH levels: unit not given here
Protocol: The study of effect of evocalcet on emesis in common marmoset was performed by referencing a previously reported method. The marmosets (n = 24) used for this study were housed in cages (460 × 600 × 655 mm) with environmental enrichments (wooden perches, swing, and balls) and acclimated for at least 4 weeks. The marmosets were fasted from evening on the day before administration. […] The serum PTH level was measured using a Porcine Intact PTH ELISA kit (Immutopics, Inc., San Clemente, CA, USA). To evaluate the emetic effects in marmosets, evocalcet (50 or 150 μg/kg) or cinacalcet (1500 or 5000 μg/kg) was orally administered (n = 6/drug, dose down titration, n = 12 in total). The observation of emesis was conducted until 4 h after the administration.

[3] = evocalcet 0.03 mg/kg oral, 0 h (before administration), group mean, n = 10
[4] = evocalcet 0.03 mg/kg oral, 0 h (before administration), individual rats
[5] = evocalcet 0.03 mg/kg oral, 0.5 h, group mean, n = 10
[6] = evocalcet 0.03 mg/kg oral, 0.5 h, individual rats
[7] = evocalcet 0.03 mg/kg oral, 2 h, group mean, n = 10
[8] = evocalcet 0.03 mg/kg oral, 2 h, individual rats
[9] = evocalcet 0.03 mg/kg oral, 4 h, group mean, n = 10
[10] = evocalcet 0.03 mg/kg oral, 4 h, individual rats
[11] = evocalcet 0.03 mg/kg oral, 6 h, group mean, n = 10
[12] = evocalcet 0.03 mg/kg oral, 6 h, individual rats
[13] = evocalcet 0.03 mg/kg oral, 8 h, group mean, n = 10
[14] = evocalcet 0.03 mg/kg oral, 8 h, individual rats
[15] = evocalcet 0.03 mg/kg oral, 24 h, group mean, n = 10
[16] = evocalcet 0.03 mg/kg oral, 24 h, individual rats
[17] = evocalcet 0.1 mg/kg oral, 0 h (before administration), individual rats
[18] = evocalcet 0.1 mg/kg oral, 0.5 h, individual rats
[19] = evocalcet 0.1 mg/kg oral, 2 h, individual rats
[20] = evocalcet 0.1 mg/kg oral, 4 h, individual rats
[21] = evocalcet 0.1 mg/kg oral, 6 h, individual rats
[22] = evocalcet 0.1 mg/kg oral, 8 h, individual rats
[23] = evocalcet 0.1 mg/kg oral, 24 h, individual rats
[24] = single oral dose, vs vehicle group

Compound: C[C@@H](N[C@H]1CCN(c2ccc(CC(=O)O)cc2)C1)c1cccc2ccccc12 [evocalcet]
- Serum Ca (serum calcium; [3]): 10.9
- Serum Ca (serum calcium; [4]): 10.2 and 11.0 and 11.2 and 10.8
- Serum Ca (serum calcium; [5]): 11.0
- Serum Ca (serum calcium; [6]): 10.2 and 10.6 and 11.8 and 10.4 and 11.2 and 11.4
- Serum Ca (serum calcium; [7]): 10.8
- Serum Ca (serum calcium; [8]): 10.0 and 11.2 and 10.6 and 10.8 and 11.0 and 10.4
- Serum Ca (serum calcium; [9]): 10.4
- Serum Ca (serum calcium; [10]): 10.2 and 10.8 and 10.0 and 10.6 and 10.4
- Serum Ca (serum calcium; [11]): 10.3
- Serum Ca (serum calcium; [12]): 10.0 and 10.4 and 10.2 and 10.6
- Serum Ca (serum calcium; [13]): 10.5
- Serum Ca (serum calcium; [14]): 9.6 and 10.0 and 8.6 and 10.6 and 11.4 and 10.8 and 12.6
- Serum Ca (serum calcium; [15]): 10.5
- Serum Ca (serum calcium; [16]): 10.2 and 10.4 and 10.6 and 10.8
- Serum Ca (serum calcium; evocalcet 0.1 mg/kg oral, 0 h (before administration), group mean, n = 10): 10.9
- Serum Ca (serum calcium; [17]): 11.0 and 10.8
- Serum Ca (serum calcium; evocalcet 0.1 mg/kg oral, 0.5 h, group mean, n = 10): 10.7
- Serum Ca (serum calcium; [18]): 10.6 and 10.0
- Serum Ca (serum calcium; evocalcet 0.1 mg/kg oral, 2 h, group mean, n = 10): 10.1
- Serum Ca (serum calcium; [19]): 10.2 and 10.0 and 9.8
- Serum Ca (serum calcium; evocalcet 0.1 mg/kg oral, 4 h, group mean, n = 10): 9.8
- Serum Ca (serum calcium; [20]): 9.8 and 10.0 and 10.2 and 9.6
- Serum Ca (serum calcium; evocalcet 0.1 mg/kg oral, 6 h, group mean, n = 10): 9.9
- Serum Ca (serum calcium; [21]): 10.0 and 10.4 and 9.8
- Serum Ca (serum calcium; evocalcet 0.1 mg/kg oral, 8 h, group mean, n = 10): 10.6
- Serum Ca (serum calcium; [22]): 10.4 and 10.8 and 10.6
- Serum Ca (serum calcium; evocalcet 0.1 mg/kg oral, 24 h, group mean, n = 10): 11.6
- Serum Ca (serum calcium; [23]): 12.6 and 10.8 and 12.0
- Serum Ca (serum calcium; evocalcet 0.3 mg/kg oral, 0 h (before administration), individual rats): 10.4 and 10.8 and 11.2
- Serum Ca (serum calcium; evocalcet 0.3 mg/kg oral, 0.5 h, individual rats): 9.6 and 9.4 and 10.4 and 10.0
- Serum Ca (serum calcium; evocalcet 0.3 mg/kg oral, 2 h, individual rats): 9.0 and 9.2 and 9.4 and 9.8
- Serum Ca (serum calcium; evocalcet 0.3 mg/kg oral, 4 h, individual rats): 8.8 and 9.6 and 9.4 and 9.8 and 9.2 and 9.0
- Serum Ca (serum calcium; evocalcet 0.3 mg/kg oral, 6 h, individual rats): 8.6 and 9.8 and 9.6 and 9.4 and 9.0
- Serum Ca (serum calcium; evocalcet 0.3 mg/kg oral, 8 h, individual rats): 9.8 and 10.4 and 9.4 and 8.8
- Serum Ca (serum calcium; evocalcet 0.3 mg/kg oral, 24 h, individual rats): 14.8 and 11.4 and 11.0 and 11.2
- Doses that significantly reduced the serum calcium level (serum calcium; [24]): ≥ 0.1 mg/kg
- Gastric Emptying (gastric emptying; 0.3 mg/kg, group mean): 67.83%
- Gastric Emptying (gastric emptying; 0.3 mg/kg, individual rats): 75.29% and 74.04% and 68.43% and 31.88% and 68.64% and 79.44% and 65.73% and 79.23%
- Gastric Emptying (gastric emptying; 1 mg/kg, group mean): 65.89%
- Gastric Emptying (gastric emptying; 1 mg/kg, individual rats): 38.94% and 71.96% and 52.65% and 74.45% and 73.42% and 65.94% and 77.15% and 72.59%
- Gastric Emptying (gastric emptying; 3 mg/kg, group mean): 61.58%
- Gastric Emptying (gastric emptying; 3 mg/kg, individual rats): 69.47% and 67.19% and 53.48% and 63.03% and 78.82% and 61.16% and 64.49% and 34.99%
- Dose (3 mg/kg) without delay of gastric emptying relative to the dose required for a significant PTH reduction (gastric emptying; oral): 100 fold
- Effect on gastric emptying (gastric emptying; oral 0.3, 1 and 3 mg/kg (any dose)): no significant effects
- Serum PTH (serum PTH [1]; [3]): 117.288
- Serum PTH (serum PTH [1]; [4]): 129.159 and 98.086 and 98.874 and 128.658 and 81.261 and 126.366 and 104.386 and 122.715 and 112.906 and 170.470
- Serum PTH (serum PTH [1]; [5]): 51.998
- Serum PTH (serum PTH [1]; [6]): 33.535 and 36.787 and 59.553 and 50.196 and 64.403 and 70.451 and 74.902 and 34.333 and 15.500 and 80.322
- Serum PTH (serum PTH [1]; [7]): 103.394
- Serum PTH (serum PTH [1]; [8]): 15.500 and 69.801 and 132.927 and 117.200 and 119.941 and 109.480 and 83.508 and 88.630 and 158.250 and 138.699
- Serum PTH (serum PTH [1]; [9]): 147.651
- Serum PTH (serum PTH [1]; [10]): 111.671 and 66.789 and 176.435 and 179.922 and 200.545 and 117.161 and 137.784 and 93.718 and 165.530 and 226.956
- Serum PTH (serum PTH [1]; [11]): 186.457
- Serum PTH (serum PTH [1]; [12]): 167.854 and 143.511 and 260.179 and 212.225 and 211.330 and 175.263 and 176.565 and 131.380 and 164.597 and 221.669
- Serum PTH (serum PTH [1]; [13]): 183.556
- Serum PTH (serum PTH [1]; [14]): 144.862 and 141.432 and 139.974 and 226.246 and 213.297 and 177.022 and 177.107 and 148.207 and 214.155 and 253.260
- Serum PTH (serum PTH [1]; [15]): 111.913
- Serum PTH (serum PTH [1]; [16]): 85.800 and 128.079 and 93.520 and 115.512 and 45.316 and 85.890 and 75.657 and 215.959 and 131.939 and 141.454
- Serum PTH (serum PTH [1]; [17]): 112.047 and 96.726 and 90.998 and 167.821
- Serum PTH (serum PTH [1]; [18]): 33.820 and 15.500
- Serum PTH (serum PTH [1]; [19]): 42.097 and 52.053 and 15.500
- Serum PTH (serum PTH [1]; [20]): 266.348 and 163.156 and 79.252 and 192.014
- Serum PTH (serum PTH [1]; [21]): 153.036 and 149.943 and 133.171 and 173.553
- Serum PTH (serum PTH [1]; [22]): 303.000 and 168.617 and 221.701
- Serum PTH (serum PTH [1]; [23]): 120.270 and 80.325 and 122.155
- Strength of pharmacological effect relative to cinacalcet at the same dosage (serum PTH [1]; oral): approximately 30 times
- Doses that significantly reduced the serum PTH level (serum PTH [1]; [24]): ≥ 0.03 mg/kg
- Serum PTH levels (serum PTH [2]; 5 μg/kg, 1 h, individual animals): 19.1 and 25.6 and 158.9
- Serum PTH levels (serum PTH [2]; 5 μg/kg, 1 h, mean): 67.9
- Serum PTH levels (serum PTH [2]; 5 μg/kg, 4 h, individual animals): 52.9 and 115.9 and 433.3
- Serum PTH levels (serum PTH [2]; 5 μg/kg, 4 h, mean): 200.7
- Serum PTH levels (serum PTH [2]; 5 μg/kg, before administration, individual animals): 92.1 and 97.8 and 541.4
- Serum PTH levels (serum PTH [2]; 5 μg/kg, before administration, mean): 243.8
- Serum PTH levels (serum PTH [2]; 150 μg/kg, 1 h, individual animals): 36.4 and 52.9 and 258.2
- Serum PTH levels (serum PTH [2]; 150 μg/kg, 1 h, mean): 115.9
- Serum PTH levels (serum PTH [2]; 150 μg/kg, 4 h, individual animals): 81.0 and 188.4 and 311.9
- Serum PTH levels (serum PTH [2]; 150 μg/kg, 4 h, mean): 193.8
- Serum PTH levels (serum PTH [2]; 150 μg/kg, before administration, individual animals): 57.2 and 203.0 and 236.6
- Serum PTH levels (serum PTH [2]; 150 μg/kg, before administration, mean): 165.6
- Minimum effective dose on PTH reduction (serum PTH [2]; oral): 0.005 mg/kg
